pIC50: −log10 of the molar value. Where two headings read alike, the source gives them in different places. Blank lines part the entries; values can stand above or below the compound they belong to. Numbered stars: 1 amine (or outer) side, 2 acyl side, 3 side chain; on linkers, the order of the positions; unused ones are H or OH. Square brackets hold non-standard residues; d marks the D form. Peptide text beside a SMILES is read from it. X1 = CC(C)[C@H](C)N(CC(=O)[*:2])[*:1]; Nspe = C[C@H](NCC(=O)O)c1ccccc1; Nphe = O=C(O)CNCc1ccccc1; Nlys = NCCCCNCC(=O)O
How the values were obtained:
[1] = MTS assay, metabolic inhibition; type: cell-based, mouse
In short: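 NIH/3T3 cells seeded at 5,000 per well, grown a day, then exposed to serially diluted peptoids in HBSS together with MTS reagent. Absorbance at 490 nm read after 3 hours at 37° C.; mean of six replicates.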

[2] = RP-HPLC elution solvent composition as measure of molecular hydrophobicity; type: physicochemical; settings: Table 5; average of three injections; linear 5%-95% acetonitrile/water (0.1% TFA) over 45 minutes, C18 column; measure of hydrophobicity
Description: (§1) An initial set of 15 ampetoid analogs was synthesized to determine whether peptoids are affected by structural and sequence modifications in a manner consistent with AMP activities. The designs for ampetoids in this library were derived from two antibacterial and selective amphipathic dodecamers, 1 and 2. Peptoid 1 [H-(Nlys-Nspe-Nspe)4—NH2] is composed of 2/3 Nspe, the peptoid analog of phenylalanine, and 1/3 Nlys, the peptoid analog of lysine (see FIG. 1 for the structures of representative peptoid monomers and corresponding N-substituents). Peptoid 2 [H-(Nlys-Nssb-Nspe)4—NH2] contains 1/3 isoleucine-like Nssb monomers in place of Nspe. The variant sequences were designed to effect changes in chirality, length, hydrophobicity, charge, and amphipathicity. All of these compounds were tested for antibacterial activity against representative BSL1 Gram-negative (E. coli JM109) and Gram-positive (B. subtilis BR151) bacterial strains. As an initial measure of selectivity, the lytic activity of the peptoids was determined against human erythrocytes. Table 1 summarizes the sequences synthesized, the solvent composition at RP-HPLC elution as a relative measure of molecular hydrophobicity, and antibacterial and hemolytic activities.
Following synthesis, peptoid oligomers can be cleaved from the resin, simultaneously removing the tert-butoxycarbonyl (Boc) protecting group from Nlys residues, by treatment with 10 ml 2,2,2-trifluoroacetic acid (TFA)/triisopropylsilane/H2O (95:2.5:2.5 by volume) for 30 min. The cleavage mixture is then diluted with 25 ml 50% aqueous acetonitrile, frozen, and lyophilized. Dilution and lyophilization is repeated twice more in order to remove excess TFA. Subsequent to cleavage, peptoids are each purified to >97% homogeneity by preparative scale reversed-phase HPLC using a Waters Prep LC 4000 system, with Waters 2487 dual-wavelength UV detection, and gradient elution (solvent A, 0.1 vol % trifluoroacetic acid (TFA) in water; solvent B, 0.1 vol % TFA in acetonitrile) through a Vydac (Hysperia, Calif.) 214TP101550 C4 peptide/protein column (10-15 μm, 300 Å, 5×25 cm). Following prep HPLC, peptoid purities and crude yields were determined from analytical scale HPLC, performed with a Waters 2695 Separations Module with a Waters 2487 dual-wavelength UV detector and gradient elution (solvent A, 0.1 vol % TFA in water; solvent B, 0.1 vol % TFA in acetonitrile) through a Vydac C4 214TP53 peptide/protein column (5 μm, 300 Å, 3.2×250 mm). The precise gradient employed for HPLC depended on the identity and hydrophobicity of the oligomer in question. All analytical HPLC was performed at 0.5 ml/min flow and 58° C. Preparative HPLC was performed at 50 ml/min flow and room temperature.

human erythrocytes = experiment: Hemolysis assay; type: cell-based
In short: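 Peptoid serial dilutions in PBS pH 7.4 were combined with an equal volume of 20 vol % washed human red cells (heparinised blood) for 1 h at 37 °C. After dilution and pelleting at 1200 g, released haemoglobin in supernatant was read at A350, scaled between PBS and 0.2 vol % Triton X-100 controls.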

E. coli JM109 = type: cell-based
Description: as §1
Antibacterial assays. MICs were determined according to CLSI M7-A6 protocols in a 96-well microtiter plate. In test wells, 50 μL bacterial inoculum (5×10^5 CFU/ml) in Mueller-Hinton broth (MHB) was added to 50 μL peptoid solution in MHB (prepared by 1:2 serial dilutions). Positive controls contained 50 μL inoculum and 50 μL MHB without peptoid. […] MIC values reported were reproducible between three independent experimental replicates, each consisting of two parallel trials. Broad-spectrum antimicrobial susceptibility testing was performed against BSL2 pathogens by Nova Biologicals, Inc. (Conroe, Tex.).

- pIC50 [1]: 4.80
- HPLC elution (% ACN) [2]: 59.8 % ACN
SMILES: NCCCCNCC(=O)N(CC(=O)N(CC(=O)N(CCCCN)CC(=O)N(CC(=O)N(CC(=O)N(CCCCN)CC(=O)N(CC(=O)N(CC(=O)N(CCCCN)CC(=O)N(CC(=O)N(CC(N)=O)Cc1ccccc1)Cc1ccccc1)Cc1ccccc1)Cc1ccccc1)Cc1ccccc1)Cc1ccccc1)Cc1ccccc1)Cc1ccccc1 [1achiral, H-(Nlys-Npm-Npm)4-NH2] (H-[Nlys][Nphe][Nphe][Nlys][Nphe][Nphe][Nlys][Nphe][Nphe][Nlys][Nphe][Nphe]-NH2)

SMILES: C[C@@H](c1ccccc1)N(CC(N)=O)C(=O)CN(C(=O)CN(CCCCN)C(=O)CN(C(=O)CN(C(=O)CN(CCCCN)C(=O)CN(C(=O)CN(C(=O)CN(CCCCN)C(=O)CN(C(=O)CN(C(=O)CNCCCCN)[C@@H](C)c1ccccc1)[C@@H](C)c1ccccc1)[C@@H](C)c1ccccc1)[C@@H](C)c1ccccc1)[C@@H](C)c1ccccc1)[C@@H](C)c1ccccc1)[C@@H](C)c1ccccc1 [compound 1, H-(NLys-Nspe-Nspe)4-NH2] (H-[Nlys][Nspe][Nspe][Nlys][Nspe][Nspe][Nlys][Nspe][Nspe][Nlys][Nspe][Nspe]-NH2)
- pIC50 ([1]; Table 6, NIH 3T3 mouse fibroblast cells): 5.29
- HD10 (10% hemolytic dose) (human erythrocytes; Table 1, human erythrocytes): 21 µM
- HD50 (50% hemolytic dose) (human erythrocytes; Table 1, human erythrocytes): 100 µM
- HD10 (human erythrocytes; Table 2): 18 µM
- HD50 (human erythrocytes; Table 2): 72 µM
- HD10 (human erythrocytes; Table 3): 21 µM
- HD50 (human erythrocytes; Table 3): 100 µM
- HD10 (human erythrocytes; Table 6): 21 µM
- HD50 (human erythrocytes; Table 6): 100 µM
- E. coli MIC (E. coli JM109; Table 1, E. coli JM109): 3.5 µM

- pIC50 [1]: 4.74
- MICs (E. coli JM109; JM109): < 7 µM
SMILES: C[C@@H](c1ccccc1)N(CC(N)=O)C(=O)CN(C(=O)CN(CCCCN)C(=O)CN(C(=O)CN(C(=O)CN(CCCCN)C(=O)[C@@H]1CCCN1C(=O)CN(C(=O)CN(CCCCN)C(=O)CN(C(=O)CN(C(=O)CNCCCCN)[C@@H](C)c1ccccc1)[C@@H](C)c1ccccc1)[C@@H](C)c1ccccc1)[C@@H](C)c1ccccc1)[C@@H](C)c1ccccc1)[C@@H](C)c1ccccc1 [1-Pro6, H-Nlys-Nspe-Nspe-Nlys-Nspe-L-Pro-(Nlys-Nspe-Nspe)2-NH2] (H-[Nlys][Nspe][Nspe][Nlys][Nspe]P[Nlys][Nspe][Nspe][Nlys][Nspe][Nspe]-NH2)
- HD10 (human erythrocytes): 83 µM
- HD50 (human erythrocytes): > 200 µM
- HD10 (10% hemolytic dose) (human erythrocytes; red cells of human, 1 h): 63 µM
- HD50 (50% hemolytic dose) (human erythrocytes; red cells of human, 1 h): > 110 µM

- pIC50 [1]: 4.70
- HPLC elution (% ACN) [2]: 63.8 % ACN
SMILES: CC(C)[C@H](C)N(CC(=O)N(CC(=O)N(CCCCN)CC(=O)N(CC(=O)N(CC(=O)N(CCCCN)CC(=O)N(CC(=O)N(CC(=O)N(CCCCN)CC(=O)N(CC(=O)N(CC(N)=O)[C@@H](C)c1ccccc1)[C@@H](C)C(C)C)[C@@H](C)c1ccccc1)[C@@H](C)C(C)C)[C@@H](C)c1ccccc1)[C@@H](C)C(C)C)[C@@H](C)c1ccccc1)C(=O)CNCCCCN [1-Nsdp2,5,8,11, H-(Nlys-Nsdp-Nspe)4-NH2] (H-[Nlys][X1][Nspe][Nlys][X1][Nspe][Nlys][X1][Nspe][Nlys][X1][Nspe]-NH2)
- HD10 (human erythrocytes): 111 µM
- HD50 (human erythrocytes): > 200 µM
